Laboratory results reported in patent publication EP4603105A1, “PHARMACEUTICAL COMPOSITION CONTAINING CYCLIC COMPOUND HAVING SELECTIVE KRAS INHIBITORY EFFECT AGAINST HRAS AND NRAS” (CHUGAI SEIYAKU KABUSHIKI KAISHA, priority 2022, dated 2024).
Where two headings read alike, the source gives them in different places.

Experiments:
HRAS wild-type protein = HRAS wild-type protein (Homo sapiens, UniProt P01112); experiment: Binding to HRAS by surface plasmon resonance (SPR), KD and KD ratio to KRAS
How it was run: (§1)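 Recombinant RAS proteins bearing a biotinylated Avi tag and loaded with GDP served as the captured ligand, recaptured fresh every cycle. Binding responses were referenced to an uncoated surface and a buffer-only blank cycle. Dissociation constants were obtained by 1:1 model fitting at 30°C.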

[1] = system: human lung cancer strain NCI-H441; experiment: NCI-H441 cell proliferation inhibitory activity (CellTiter-Glo, 4 days); format: cell-based; settings: read-out: NCl-H441 IC50
How it was run: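 Signal came from […] measured per well once the reagent was added. Beforehand, cells were cultured at 37°C and 5% carbon dioxide on a compound series serially diluted in dimethyl sulfoxide.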

[2] = target: GDP-bound NRAS wild-type protein (Homo sapiens, UniProt P01111); experiment: Binding to NRAS by surface plasmon resonance (SPR), KD and KD ratio to KRAS
Chain of GDP-bound NRAS wild-type protein (P01111 whole entry): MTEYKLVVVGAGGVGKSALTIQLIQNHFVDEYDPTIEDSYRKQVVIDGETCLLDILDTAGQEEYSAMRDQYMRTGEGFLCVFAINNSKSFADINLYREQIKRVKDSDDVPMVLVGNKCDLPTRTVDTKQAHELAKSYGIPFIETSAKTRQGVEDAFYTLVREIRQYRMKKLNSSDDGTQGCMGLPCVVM
How it was run: as §1

[3] = target: GDP-bound KRAS wild-type protein (Homo sapiens, UniProt P01116); experiment: Binding to KRAS by surface plasmon resonance (SPR), dissociation constant KD
Chain of GDP-bound KRAS wild-type protein (P01116 1-188 isoform P01116-2): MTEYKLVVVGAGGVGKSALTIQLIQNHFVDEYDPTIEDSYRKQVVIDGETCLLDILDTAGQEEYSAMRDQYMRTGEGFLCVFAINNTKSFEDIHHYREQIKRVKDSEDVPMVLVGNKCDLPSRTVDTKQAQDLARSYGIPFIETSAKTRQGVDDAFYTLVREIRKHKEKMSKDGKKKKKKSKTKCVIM
How it was run: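 SPR, 30°C: Avi-biotin RAS·GDP captured via Biotin CAPture (~100–300 RU); running buffer HBS pH 7.4, 1 mM DTT, 10 mM MgCl2, 0.01% Tween 20, 10 µM GDP, 4% DMSO. Single-cycle kinetics, 100 µL/min, 75 s injections; 1:1 model → KD.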

[4] = ratio of KD for HRAS wild-type protein to KD for KRAS
[5] = ratio of KD for GDP-bound NRAS wild-type protein to KD for KRAS
[6] = ratio of KD with respect to HRAS wild-type protein to KD with respect to KRAS
[7] = 50% proliferation inhibitory concentration, four days
[8] = ratio of KD with respect to GDP-bound NRAS wild-type protein to KD with respect to KRAS
[9] = Single Cycle Kinetics, 1:1 binding model

Chain of HRAS wild-type protein (P01112 whole entry): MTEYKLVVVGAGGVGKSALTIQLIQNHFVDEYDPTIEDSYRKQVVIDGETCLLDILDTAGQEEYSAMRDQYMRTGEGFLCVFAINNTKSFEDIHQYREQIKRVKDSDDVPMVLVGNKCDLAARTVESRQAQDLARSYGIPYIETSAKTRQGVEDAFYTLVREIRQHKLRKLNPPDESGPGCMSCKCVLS

SMILES | HRAS /KRAS (HRAS wild-type protein; [4]) | IC50 ([1]; NCI-H441 cells, 4 days) [nM] | NRAS /KRAS [2, 5] | Kd ([3]; Single Cycle Kinetics) [nM] | HRAS /KRAS (HRAS wild-type protein; [6]) | IC50 [1, 7] [nM] | NRAS /KRAS [2, 8] | Kd [3, 9] [nM] | Kd ([3]; 1:1 binding model) [nM]
CCC[C@H]1C(=O)N[C@@H](C23CC(C2)C3)C(=O)N(C)CC(=O)N(C)[C@H]2C/C=C\CCN(C2=O)[C@@H](Cc2ccc(C(F)(F)F)cc2)C(=O)N(C)CC(=O)N[C@@H](CCc2ccc(C(F)(F)F)c(OC)c2)C(=O)N2C[C@H](OCC)C[C@H]2C(=O)N(C)C2(CCC2)C(=O)N(C)[C@@H](C2CCCC2)C(=O)N(C)[C@H](C(=O)N(C)C)CC(=O)N1C [PP3341] | A (a compound having 10 or more and less than 20 is denoted as A) | 28.3 | A (a compound having 10 or more and less than 20 is denoted as A) | 0.46 | – | – | – | – | –
CCO[C@@H]1C[C@H]2C(=O)NC3(CCC3)C(=O)N(C)[C@@H](C3CCCC3)C(=O)N(C)[C@H](C(=O)N3CCOCC3)CC(=O)N(C)[C@@H](Cc3ccc(Cl)c(Cl)c3)C(=O)N[C@@H]([C@@H](C)CC)C(=O)N(C)CC(=O)N(C)[C@H]3CCCCCN(C3=O)[C@@H](Cc3ccc(F)cc3)C(=O)N(C)CC(=O)N[C@@H](CCc3cc(F)c(C(F)(F)F)c(F)c3)C(=O)N2C1 [PP1188] | – | – | – | – | B (a compound having 3 or more and less than 10 is denoted as B) | 33.5 | B (a compound having 3 or more and less than 10 is denoted as B) | 0.43 | –
CCCOC[C@H]1C(=O)N[C@@H]([C@@H](C)CC)C(=O)N(C)CC(=O)N(C)[C@H]2C/C=C\CCN(C2=O)[C@@H](CC2CCCCC2)C(=O)N(C)CC(=O)N[C@@H](CCc2cc(F)c(C(F)(F)F)c(F)c2)C(=O)N2C[C@H](OCC)C[C@H]2C(=O)NC2(CC(C)(C)C2)C(=O)N(C)[C@@H](C(CC)CC)C(=O)N(C)[C@H](C(=O)N(C)C)CC(=O)N1C [PP2501] | A (a compound having 10 or more and less than 20 is denoted as A) | 180 | AA (a compound having 20 or more is denoted as AA) | – | – | – | – | – | 1.8
CCC[C@H]1C(=O)N[C@@H]([C@@H](C)CC)C(=O)N(C)CC(=O)N(C)[C@H]2C/C=C\CCN(C2=O)[C@@H](Cc2ccc(C(F)(F)F)cc2)C(=O)N(C)CC(=O)N[C@@H](CCc2ccc(C(F)(F)F)c(Cl)c2)C(=O)N2CC3(CC3)C[C@H]2C(=O)N(C)C2(CCC2)C(=O)N(C)[C@@H](C(CC)CC)C(=O)N(C)[C@H](C(=O)N(C)C)CC(=O)N1C [PP3297] | B (a compound having 3 or more and less than 10 is denoted as B) | 10.2 | A (a compound having 10 or more and less than 20 is denoted as A) | 0.48 | – | – | – | – | –
CCCOC[C@H]1C(=O)N[C@@H]([C@@H](C)CC)C(=O)N(C)CC(=O)N(C)[C@H]2C/C=C\CCN(C2=O)[C@@H](CC2CCC(F)(F)CC2)C(=O)N(C)CC(=O)N[C@@H](CCc2ccc(C(F)(F)F)c(OC)c2)C(=O)N2C[C@@H](C)C[C@H]2C(=O)NC2(CC(C)(C)C2)C(=O)N(C)[C@@H](C(CC)CC)C(=O)N(C)[C@H](C(=O)N(C)C)CC(=O)N1C [PP2483] | A (a compound having 10 or more and less than 20 is denoted as A) | 195 | A (a compound having 10 or more and less than 20 is denoted as A) | – | – | – | – | – | 1.6
C#CC[C@H]1C(=O)N[C@@H]([C@@H](C)CC)C(=O)N2CCC[C@H]2C(=O)N(C)[C@H]2C/C=C\CCN(C2=O)[C@@H](Cc2ccc(C)cc2)C(=O)N(C)CC(=O)N[C@@H](CCc2ccc(C(F)(F)F)c(Cl)c2)C(=O)N2C[C@H](OCC)C[C@H]2C(=O)N(C)C2(CCC2)C(=O)N(C)[C@@H](C2CCCC2)C(=O)N(C)[C@H](C(=O)N(C)C)CC(=O)N1C [PP3257] | B (a compound having 3 or more and less than 10 is denoted as B) | 2.2 | A (a compound having 10 or more and less than 20 is denoted as A) | 0.1 | – | – | – | – | –
CCO[C@@H]1C[C@H]2C(=O)NC3(CC(C)(C)C3)C(=O)N(C)[C@@H](C(CC)CC)C(=O)N(C)[C@H](C(=O)N(C)C)CC(=O)N(C)[C@@H](CC3CC3)C(=O)N[C@@H]([C@@H](C)CC)C(=O)N(C)CC(=O)N(C)[C@H]3C/C=C\CCN(C3=O)[C@@H](CC3CCC(F)(F)CC3)C(=O)N(C)CC(=O)N[C@@H](CCc3ccc(C(F)(F)F)c(OC)c3)C(=O)N2C1 [PP2480] | A (a compound having 10 or more and less than 20 is denoted as A) | 30.5 | A (a compound having 10 or more and less than 20 is denoted as A) | – | – | – | – | – | 0.84
CCC(CC)[C@H]1C(=O)N(C)[C@H](C(=O)N(C)C)CC(=O)N(C)[C@@H](COC)C(=O)N[C@@H]([C@@H](C)CC)C(=O)N(C)CC(=O)N(C)[C@H]2C/C=C\CCN(C2=O)[C@@H](CC2CCCCC2)C(=O)N(C)CC(=O)N[C@@H](CCc2ccc(C(F)(F)F)c(OC)c2)C(=O)N2C[C@@H](C)C[C@H]2C(=O)NC2(CC(C)(C)C2)C(=O)N1C [PP2466] | A (a compound having 10 or more and less than 20 is denoted as A) | 170 | A (a compound having 10 or more and less than 20 is denoted as A) | – | – | – | – | – | 3.9
CCC[C@@H]1NC(=O)C[C@@H](C(=O)N(C)C)N(C)C(=O)[C@H](C2CCCC2)N(C)C(=O)C2(CC(C)(C)C2)NC(=O)[C@@H]2C[C@@H](OCC)CN2C(=O)[C@H](CCc2cc(F)c(C(F)(F)F)c(F)c2)NC(=O)CN(C)C(=O)[C@H](Cc2ccc(C(F)(F)F)cc2)N2CC/C=C\C[C@@H](C2=O)N(C)C(=O)CN(C)C(=O)[C@H]([C@@H](C)CC)NC1=O [PP3457] | A (a compound having 10 or more and less than 20 is denoted as A) | 13.2 | AA (a compound having 20 or more is denoted as AA) | 0.16 | – | – | – | – | –
CCO[C@@H]1C[C@H]2C(=O)NC3(CCC3)C(=O)N(C)[C@@H](C3CCCC3)C(=O)N(C)[C@H](C(=O)N(C)C)CC(=O)N(C)[C@@H](Cc3ccc(C#N)cc3)C(=O)N[C@@H]([C@@H](C)CC)C(=O)N(C)CC(=O)N(C)[C@H]3CCCCCN(C3=O)[C@@H](Cc3ccc(C(F)(F)F)cc3)C(=O)N(C)CC(=O)N[C@@H](CCc3cc(F)c(C(F)(F)F)c(F)c3)C(=O)N2C1 [PP1173] | – | – | – | – | B (a compound having 3 or more and less than 10 is denoted as B) | 70.8 | B (a compound having 3 or more and less than 10 is denoted as B) | 0.18 | –
C#CC[C@H]1C(=O)N[C@@H]([C@@H](C)CC)C(=O)N(C2CC2)CC(=O)N(C)[C@H]2C/C=C\CCN(C2=O)[C@@H](Cc2ccc(C)cc2)C(=O)N(C)CC(=O)N[C@@H](CCc2ccc(C(F)(F)F)c(OC)c2)C(=O)N2C[C@H](OCC)C[C@H]2C(=O)N(C)C2(CCC2)C(=O)N(C)[C@@H](C2CCCC2)C(=O)N(C)[C@H](C(=O)N(C)C)CC(=O)N1C [PP3248] | A (a compound having 10 or more and less than 20 is denoted as A) | 4.5 | A (a compound having 10 or more and less than 20 is denoted as A) | 0.078 | – | – | – | – | –
CCCOC[C@@H]1NC(=O)C[C@@H](C(=O)N(C)CCC)N(C)C(=O)[C@H](C2CCCC2)N(C)C(=O)C2(CC(C)(C)C2)NC(=O)[C@@H]2C[C@@H](OCC)CN2C(=O)[C@H](CCc2cc(F)c(C(F)(F)F)c(F)c2)NC(=O)CN(C)C(=O)[C@H](Cc2ccc(C(F)(F)F)cc2)N2CC/C=C\C[C@@H](C2=O)N(C)C(=O)CN(C)C(=O)[C@H]([C@@H](C)CC)NC1=O [PP3451] | A (a compound having 10 or more and less than 20 is denoted as A) | 26.2 | A (a compound having 10 or more and less than 20 is denoted as A) | 0.35 | – | – | – | – | –
CCC[C@H]1C(=O)N[C@@H]([C@@H](C)CC)C(=O)N(C2CC2)CC(=O)N(C)[C@H]2C/C(F)=C\CCN(C2=O)[C@@H](Cc2ccc(C)cc2)C(=O)N(C)CC(=O)N[C@@H](CCc2cc(F)c(C(F)(F)F)c(F)c2)C(=O)N2C[C@H](OCC)C[C@H]2C(=O)NC2(CCC2)C(=O)N(C)[C@@H](C2CCCC2)C(=O)N(C)[C@H](C(=O)N(C)C)CC(=O)N1C [PP3519] | B (a compound having 3 or more and less than 10 is denoted as B) | 22.3 | B (a compound having 3 or more and less than 10 is denoted as B) | 0.87 | – | – | – | – | –
CCC[C@H]1C(=O)N[C@@H]([C@@H](C)CC)C(=O)N2CCC[C@H]2C(=O)N(C)[C@H]2C/C=C\CCN(C2=O)[C@@H](Cc2ccc(C(F)(F)F)cc2)C(=O)N(C)CC(=O)N[C@@H](CCc2cc(F)c(C(F)(F)F)c(F)c2)C(=O)N2C[C@H](OCC)C[C@H]2C(=O)NC2(CCCC2)C(=O)N(C)[C@@H](C2CCCC2)C(=O)N(C)[C@H](C(=O)N(C)C)CC(=O)N1C [PP3474] | A (a compound having 10 or more and less than 20 is denoted as A) | 14.8 | A (a compound having 10 or more and less than 20 is denoted as A) | 0.43 | – | – | – | – | –
CCCO[C@@H]1C[C@H]2C(=O)NC3(CCC3)C(=O)N(C)[C@@H](C3CCCC3)C(=O)N(C)[C@H](C(=O)N3CCOCC3)CC(=O)N(C)[C@@H](CC(C)C)C(=O)N[C@@H]([C@@H](C)CC)C(=O)N(C)CC(=O)N(C)[C@H]3CCCCN(C3=O)[C@@H](Cc3ccc(C(F)(F)F)cc3)C(=O)N(C)CC(=O)N[C@@H](CCc3cc(F)c(C(F)(F)F)c(F)c3)C(=O)N2C1 [PP1159] | – | – | – | – | B (a compound having 3 or more and less than 10 is denoted as B) | 13 | C (A compound having a KD ratio of 0.1 or more and less than 3 is denoted as C) | 0.036 | –
